Experimental data taken from US12480950B2, “AKT-specific capture agents, compositions, and methods of using and making” (California Institute of Technology, priority 2011, dated 2025).
Like-named read-outs stand apart in the source and are kept apart here. Bridge positions count the residues as written; N and C are the ends. Square brackets hold non-standard residues; d marks the D form. Ends that are not written are not given here. I, II: the chains in the order shown. dPra = C#CC[C@@H](N)C(=O)O; C8N3 = not defined here

Experiments:
Akt [1] = assay: Immunoprecipitation of Akt from OVCAR3 cell lysates with immobilized ligands; type: binding; conditions: EGF and insulin induced or control, Western blot with pan-Akt antibody
Experimental: A representative 12% gel stained with Coomassie and imaged. Lane 1: Lysate, Lane 2: Anchor resin, Lane 3: Biligand resin, Lane 4: Triligand resin, Lane 5: 5G3 mAb resin.
After 18 hours at 4° C., resins were washed exhaustively, eluted with SDS-PAGE sample buffer, and analyzed by Western blotting. 1. Blank resin, 2. Anchor, 3. Biligand, 4. Triligand, 5. [5G3] mAb, L. lysate.
For the IP experiments, the anchor, biligand, and triligands were immobilized on streptavidin-agarose, and each resin was panned with OVCAR3 cell lysates obtained from untreated cells or cells stimulated with a combination of epidermal growth factor (EGF) and insulin.
OVCAR3 cells were grown in RPMI-1640 media containing 10% fetal bovine serum, penicillin, and streptomycin. Passage 4 cells were grown to ˜60% confluence and treated with insulin and EGF at final concentration of 10 μg/mL and 20 ng/mL respectively (induced) or mock treated (control). Cells were grown for an additional 24 hours and then lysed with lysis buffer (10 mM Tris-Cl (pH=7.5), 100 mM NaCl, 1% (v/v) Triton X-100, 0.1% SDS (w/v), 0.5% deoxycholate, 1 mM DTT, 1 mM EDTA, 1× PhosStop phosphatase inhibitors (Roche), 1× Complete protease inhibitors (Roche). Cell lysate protein concentrations were determined by Bradford assays. […]

Akt1 = assay: Specificity ELISA, immobilized ligand probed with His-tagged kinases; design: species or system H. sapiens; conditions: A450 normalized to Akt1-S473E binding; kinase panel
Experimental: (§1) Biotinylated ligand was immobilized on Streptavidin plates and probed with 25 nM His-tagged kinase followed by anti-Histag antibody-HRP conjugate. Values represent the mean A450 obtained from three experiments after normalization to Akt1-S473E binding. The error bars show the standard error.
(§2) The specificity of the anchor ligand, biligand, and triligand developed in Example 1 was analyzed using a battery of protein kinases. […] Akt1-S473E was expressed and purified as described above.
(§3) The relative affinity of each kinase was determined by probing with an anti-His6 antibody and normalizing the response to Akt1-S473E. All proteins were diluted in Akt blocking buffer to a final concentration of 24 nM prior to use. Ligands were diluted in Akt blocking buffer to a final concentration of 2.5 μM prior to use. 100 μL of each ligand (250 pmol) was added to each well of a HBC streptavidin-coated 96-well plate. The ligands were bound at 4° C. for 1 hour followed by addition of D-biotin to a final concentration of 500 μM. After 10 minutes at 4° C., the wells were washed three times with Akt blocking buffer and blocked overnight in 5% non-fat milk.
(§4) The wells were washed three times in Akt blocking buffer and 50 μL of active protein was applied to each well. After binding for 120 minutes at 4° C., the wells were washed three times in Akt blocking buffer to remove unbound protein. 50 μL of horseradish peroxidase-conjugated Anti-His6 antibody was added at a dilution of 1:100 (His Probe (H-3) HRP conjugate, Santa Cruz Biotechnology). The antibody-HRP conjugate was incubated for 60 minutes and the wells were washed 3 times in TBST and once in TBS. 50 μL of peroxidase substrate (KPL) was added and the resulting color change was quenched with 50 μL 1 M H2SO4. The A450 measured on a 96-well plate reader. […] The mean value for the triplicates was calculated and plotted and the error bars were generated from the standard error of the mean (GraphPad Prism).

MEK1 = MEK1 (Homo sapiens, UniProt Q02750); conditions: A450 normalized to Akt1-S473E binding
MEK1, sequence (Q02750 68-361 limits assumed, species assumed): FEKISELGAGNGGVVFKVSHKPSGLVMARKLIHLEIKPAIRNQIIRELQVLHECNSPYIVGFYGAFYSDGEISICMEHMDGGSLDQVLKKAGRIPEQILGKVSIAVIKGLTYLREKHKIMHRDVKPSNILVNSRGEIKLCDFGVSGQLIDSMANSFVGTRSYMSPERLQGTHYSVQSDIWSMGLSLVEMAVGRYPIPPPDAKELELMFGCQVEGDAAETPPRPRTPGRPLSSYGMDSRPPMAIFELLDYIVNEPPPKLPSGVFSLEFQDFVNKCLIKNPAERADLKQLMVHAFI
Experimental: as §1, §2
as §3, with “After 10 minutes at 4° C., the wells were washed three times with Akt blocking buffer and blocked overnight in 5% non-fat milk.” left out
The wells were washed three times in Akt blocking buffer and 50 μL of active protein was applied to each well. […] The A450 measured on a 96-well plate reader. […] The mean value for the triplicates was calculated and plotted and the error bars were generated from the standard error of the mean (GraphPad Prism).

Akt-S473E [2] = conditions: [2H10] antibody directed toward the C-terminus
Text: Immobilized anchor, biligand, and triligand were probed with varying concentrations of […]. Binding was detected by an anti-Akt1 monoclonal antibody ([2H10]) followed by an anti-mouse secondary antibody-HRP conjugate. The fraction bound was normalized and plotted against the concentration of Akt-S473E on a log scale.
The C-terminus is effectively on the “backside” of the kinase domain, opposite the active site.

Akt1-S473E-T308P = target: Akt1-S473E-T308P
Text: FIG. 22A: Velocity vs. [Peptide substrate] with varying concentration of inhibitory triligand. FIG. 22B: Velocity vs. [ATP] with varying concentration of inhibitory triligand.
FIGS. 23A-23D show determination of Ki′ and inhibition mode for triligand with respect to peptide substrate. FIG. 23A: Plot of 1/KM(app) vs. [Triligand]. KM(app) were obtained from nonlinear regression analysis of velocity vs. [Peptide] curves obtained with varied concentrations of triligand (Graphpad). The error bars represent the standard error of KM(app) by nonlinear regression. 95% confidence intervals are shown as dotted lines. […] FIG. 23B: Plot of 1/Vmax(app) vs. [Triligand]. Values for Vmax(app) and standard error were obtained by nonlinear regression as described above. […] FIG. 23C: Dixon plot of 1/v vs. [Triligand] at various [Peptide]. Data from low peptide concentrations were removed to account for possible substrate depletion. […] FIG. 23D: Cornish-Bowden plot of [Peptide]/v vs. [Triligand] at various [Peptide]. The intersection of the lines gives the −Ki′.
FIG. 24A: Plot of 1/KM(app) vs. [Triligand]. KM(app) were obtained from nonlinear regression analysis of velocity vs. [ATP] curves obtained with varied concentrations of triligand (Graphpad). The error bars represent the standard error of KM(app) by nonlinear regression. […] FIG. 24B: Plot of 1/Vmax(app) vs. [Triligand]. […] FIG. 24C: Dixon plot of 1/v vs. [Triligand] at various [ATP]. Data from low ATP concentrations were removed due high counting error resulting from low counts per minute (cpm).
Two standard enzyme kinetic assays were carried out to determine the mode of Akt1 inhibition by the triligand (Segel 1975). For these assays, the kinase activity is measured under varying substrate and triligand concentrations. The resulting data can be interpreted so that the nature of the competition between the triligand and the substrate for the relevant kinase binding site is determined. For example, if the triligand and ATP competed for the same binding pocket, the maximum velocity (Vmax) of the kinase would be unchanged while the Michaelis constant (KM) would increase. The plots can also be used as a means of determining the inhibition constant (Ki) of the triligand.
Akt-S473E-T308P was prepared by incubating 75 μg Akt-S473E with 1 μg PDK1 (Sigma) in the presence of 500 μM ATP in 1× reaction buffer (25 mM Tris-Cl (pH=7.5), 10 mM MgCl2, 2 mM DTT, 1× protease inhibitors (Roche), 1× phosphatase inhibitors (Roche)). The phosphorylation reaction proceeded for 40 minutes at room temperature followed by addition of 25 mM EDTA. The quenched reaction was added to 40 μL Anti-FLAG M2 agarose (Sigma) and allowed to bind for 2 hr at 4° C. The resin was washed in FLAG Wash Buffer (20 mM HEPES (pH=7.4), 150 mM NaCl, 1× protease inhibitors (Roche), 1× phosphatase inhibitors (Roche)) and the Akt1-S473E-T308P eluted with FLAG Elution Buffer (FLAG wash buffer+0.15 mg/mL 3×FLAG peptide) for 30 minutes at room temperature. The concentration of protein was determined by Bradford assay.

Akt1-S473E = conditions: SPR, from kinetic parameters, 10° C., Akt1-S473E 9000 nM to 1 nM
Experimental: For this experiment, the biotinylated triligand was immobilized on a streptavidin-derivatized biacore chip and probed with Akt-S473E at concentrations ranging from 9 μM to 1 nM.
Triligand binding affinity was further analyzed by SPR using a Biacore T100. A Streptavidin Chip (Series S, G.E. Healthcare) was conditioned as recommended by the manufacturer. Biotinylated ligand was diluted into HBSP+ Buffer (G.E. Healthcare) to a final concentration of 100 nM and 137 RU was immobilized on the chip. Akt1-S473E was prepared as described previously and subjected to buffer exchange into HBSP+ using Zeba Desalting Columns (Pierce). Serial dilutions of the enzyme were made in HBSP+ buffer (9000 nM to 1 nM) and flowed over the chip at 50 μL/minute. Binding and dissociation were carried out at 10° C. with a contact time of 360 seconds, a dissociation time of 400 seconds, and a stabilization time of 200 seconds. The response was corrected using an unmodified reference flow cell. Kinetic constants were obtained from the sensograms and used to calculate the dissociation constant.

GSK3β = target: T1, GSK3β (Homo sapiens, UniProt P49841); assay: Specificity ELISA, immobilized ligand probed with His-tagged kinases; conditions: A450 normalized to Akt1-S473E binding
T1 construct: a set of His-tagged active protein kinase domains from the AGC family; purchased Invitrogen
T1 sequence (P49841 56-340 limits assumed, species assumed): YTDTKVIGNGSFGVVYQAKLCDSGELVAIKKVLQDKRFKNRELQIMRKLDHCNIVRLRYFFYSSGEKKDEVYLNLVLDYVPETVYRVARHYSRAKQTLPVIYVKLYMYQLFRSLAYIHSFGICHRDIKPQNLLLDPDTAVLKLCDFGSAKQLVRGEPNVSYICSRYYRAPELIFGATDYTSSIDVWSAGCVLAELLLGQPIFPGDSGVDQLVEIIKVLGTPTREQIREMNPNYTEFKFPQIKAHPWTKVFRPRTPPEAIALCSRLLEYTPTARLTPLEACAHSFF
Experimental: as §1, §2, §3, §4

Akt-S473E [3] = assay: ELISA with immobilized Akt-S473E, relative affinity of biotinylated ligands; type: binding, H. sapiens; conditions: triligand versus biligand
Experimental: Akt-S473E was immobilized on Ni-NTA plates and incubated with varying concentrations of biotinylated peptide. All values were normalized to the binding observed at saturation.
The affinity of the anchor ligand, biligand, and triligand developed in Example 1 was determined by ELISA with immobilized Akt-S473E.
3 μg of Akt-S473E was added to each well in a HisSorb Ni-NTA plate (Qiagen) in 50 μL of ELISA blocking buffer (25 mM Tris-Cl (pH=7.5), 150 mM NaCl, 10 mM MgCl2, 0.1% (v/v) Tween-20, and 4 mg/mL BSA). 50 μL of imidazole blocking buffer (25 mM Tris-Cl (pH=7.5), 150 mM NaCl, 10 mM MgCl2, 0.1% (v/v) Tween-20, 100 mM imidazole, and 4 mg/mL BSA) was added to the control wells. After 18 hours at 4° C., the wells were washed with ELISA blocking buffer and 50 μL of each ligand dilution was added in ELISA blocking buffer. The ligands were bound at 4° C. for 120 minutes followed by three washed in ELISA blocking buffer. 50 μL of horseradish peroxidase-conjugated streptavidin (SA-HRP, Thermo) was added (1:5000 dilution in ELISA blocking buffer) and incubated for 70 minutes at 4° C. […] 50 μL of peroxidase substrate (KPL) was added to generate the final signal which was quenched in 1 M H2SO4 and quantitated on a 96-well plate reader at X=450 nm. The Net A450 was calculated by subtracting the A450 of each blank well (No Akt-S473E) from the experimental well. […]

Akt2 = target: T2, Akt2 (Homo sapiens, UniProt P31751); assay: Akt2 kinase activity assay, p-GSK-3a/b Western blot; type: biochemical; conditions: p-GSK-3a/b abundance, active Akt2
T2 construct: purchased Abcam
T2 sequence (P31751 whole entry, species assumed): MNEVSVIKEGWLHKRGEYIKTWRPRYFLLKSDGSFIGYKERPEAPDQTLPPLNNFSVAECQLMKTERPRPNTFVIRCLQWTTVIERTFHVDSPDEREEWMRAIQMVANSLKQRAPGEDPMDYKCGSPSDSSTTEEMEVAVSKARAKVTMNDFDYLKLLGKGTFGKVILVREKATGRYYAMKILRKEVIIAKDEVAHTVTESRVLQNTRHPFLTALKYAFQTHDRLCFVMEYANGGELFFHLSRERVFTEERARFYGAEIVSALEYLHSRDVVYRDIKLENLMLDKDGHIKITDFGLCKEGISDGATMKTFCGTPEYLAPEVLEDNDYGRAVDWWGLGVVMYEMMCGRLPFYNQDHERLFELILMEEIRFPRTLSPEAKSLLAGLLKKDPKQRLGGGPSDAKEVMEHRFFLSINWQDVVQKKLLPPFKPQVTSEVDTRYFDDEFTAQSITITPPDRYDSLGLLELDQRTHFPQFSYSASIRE
Text: PCC compositions, developed using the epitope targeting strategy, make non-traditional enzyme inhibitors. If Akt2 is activated by phosphorylation of Ser474 then, in that state, it phosphorylates GSK-3a/b. If it is further activated via a steric effect, then it will produce more p-GSK-3a/b. If that same Akt2 is inhibited, then it will produce less p-GSK-3a/b. Thus, the signature of Akt inhibition (or activation) is read out as p-GSK-3a/b abundance, relative to the DMSO control. Assays are shown at right in the form of Western Blots. The DMSO column gives the baseline level. The n-terminal triligand the biligand, the dimer of the n-terminal triligand, and the commercial monoclonal antibody all activate Akt relative to DMSO. The c-terminal triligand inhibits Akt. The ‘hi’ and ‘low’ blots correspond to long and short development times, respectively. The Akt2 protein used for the inhibition assay is active Akt2 that is phosphorylated at Thr308, and is at least partially phosphorylated at Ser474, since the antibody for pSer474 detects the pSer474.

Akt [4] = assay: Immunofluorescent imaging of Akt in fixed OVCAR3 cells; type: cell-based; conditions: unstimulated or EGF-treated
Experimental: OVCAR3 cells were grown on polylysine coated coverslips and treated with either 500 ng/mL EGF (Sigma) or vehicle control for 10 minutes. Cells were then fixed with 10% formaldehyde for 15 min at 37° C., washed with PBS, permeablized by incubating with 0.1% Triton X-100 for 10 min at room temperature, and blocked with 5% goat serum. Permeabilized cells were stained with either a fluorescein-conjugated Pan Akt antibody (R&D Systems IC2055F, 10 μg/mL) overnight or 1 μM fluorescein conjugated biligand for 1 hour. Images were acquired using a Zeiss Pascal 5 Laser Scanning Microscope (Caltech Biological Imaging Center) and surface plots were generated with ImageJ software (NIH). For this assay, Akt was expected to locate to the cell membrane following stimulation of a receptor tyrosine kinase such as epidermal growth factor receptor (EGFR) by its ligand (EGF). Images of unstimulated and stimulated cells clearly reveal that this was the case (FIG. 18).

Akt [5] = target: T3, Akt (Homo sapiens, UniProt P31751); assay: Detection of Akt from OVCAR3 cell lysate by anti-Ser474 Akt2 capture agents; type: binding
T3 construct: endogenous in cells; host or cells: OVCAR3
T3 sequence (P31751 whole entry): as the sequence (P31751 whole entry, species assumed) above
Text: The characteristics of this best ligand were improved through use of sequential in situ click chemistry, as described in Capture Agents and Related Compositions, Methods, and Systems CIT 5164-P; and Akt-Specific Capture Agents, Compositions, and Methods of Using and Making. CIT 5917-P, Agnew, et al., Angew. Chem. 121, p 5044-5048 (2009), and Millward, et al., J. Am. Chem. Soc. 133, 1820 (2011), incorporated herein by reference in their entireties. For these steps, the capture agent that was identified in Steps (1)-(4) was improved into a biligand (FIG. 36b), and then a triligand (FIG. 36c).

For `CCC(C)[C@H](NC(=O)[C@H](CCCNC(=N)N)NC(=O)[C@H](CCC(=O)O)NC(=O)[C@H](Cc1cnc[nH]1)NC(=O)[C@H](CCCNC(=N)N)NC(=O)C(CCCCCCCCn1cc(CCCC(=O)NC(CCCCCCCCn2cc(C[C@H](NC(C)=O)C(=O)N[C@@H](Cc3ccccc3)C(=O)N[C@@H](Cc3c[nH]c4ccccc34)C(=O)N[C@@H](Cc3ccccc3)C(=O)N[C@@H](CC(C)C)C(=O)NC(CCCNC(=N)N)C(=O)NCC(N)=O)nn2)C(=O)N[C@H](C(=O)N[C@@H](Cc2ccccc2)C(=O)N[C@@H](Cc2ccc(O)cc2)C(=O)N[C@@H](CCCNC(=N)N)C(=O)N[C@@H](CC(C)C)C(=O)NCC(=O)N[C@@H](Cc2ccc(O)cc2)C(=O)NCCNC(=O)CCCCC2SCC3NC(=O)NC32)C(C)C)nn1)NC(C)=O)C(N)=O` (some centres unmarked) [triligand], the “immunoprecipitation of Akt” value (Akt [1]) was “somewhat increased immunoprecipitation of Akt relative to the biligand in induced cell lysates but not in the non-induced control cell lysate”, the “specificity / selectivity for Akt1” value (Akt1) was “selectivity for Akt1 is clearly enhanced” and the “off-target binding to MEK1” value (MEK1) was “completely eliminated”. The “overlap of binding site with anti-Akt1 antibody” value (Akt-S473E [2]) was “may partially overlap”, the Ki (Akt1-S473E-T308P; V vs. [ATP], variable [Triligand], Dixon plot, mean ± standard deviation) was 4 µM and the Ki (Akt1-S473E-T308P; V vs. [Peptide], variable [Triligand], Dixon plot, mean ± standard deviation) was 2.6 µM. For the same molecule, the Ki (Akt1-S473E-T308P; read-out: X-intercept of 1/Vmax(app) vs. [Triligand], varied ATP, wide error range based on the 95% CI) was 5.8 µM, the Ki (Akt1-S473E-T308P; read-out: X-intercept of 1/Vmax(app) vs. [Triligand], varied peptide substrate) was 1.7 µM and the “X-intercept (−Ki′) of 1/KM(app) vs. [Triligand]” value (Akt1-S473E-T308P; varied peptide substrate) was 3.6 µM. For the same molecule, the Inhibition mode (Akt1-S473E-T308P; with respect to ATP) was “Noncompetitive”, the Inhibition mode (Akt1-S473E-T308P; with respect to peptide substrate) was “Uncompetitive” and the Kd (Akt1-S473E) was 0.2 µM. The “binding to GSK3β” value (GSK3β) was “significantly reduced” and the affinity gain (Akt-S473E [3]) was 2-3 fold.

With “dimer of the n-terminal triligand: dimerized n-terminal triligand targeted against Ser474 of Akt2 (FIG. 36E) (peptide 1 [dPra][dW][dK][dV][dK][dL]; peptide 2 FYGNH; peptide 3 YYRFG; numbers in words are those of the source; also: dimer of triligand, chains 2 and 3 stereochemistry not given here)” the “effect on Akt kinase activity relative to DMSO” value (Akt2) was “activate Akt”.

In the case of “fluorescein-conjugated biligand: biligand with fluorescein derivative on the amino terminus of the secondary peptide (FIG. 17) (chain 1 C8N3-VFYRLGY-NH2; chain 2 FWFLRG-NH2; triazole I:N-II:N; not fully specified (N-terminus); reading uncertain; also: triazole linkage between chains, fluorescein on amino terminus of secondary peptide)”, the “imaging of Akt localisation” value (Akt [4]) is reported as “distinguishes cytoplasmic or membrane-bound AKT”.

“monoligand: peptide wkvkl (SEQ ID NO:4) coupled to Ac2-Tz4-PEG2-Biotin; targeted against Ser474 of Akt2 ([dW][dK][dV][dK][dL]-NH2; not fully specified (N-terminus); printed as wkvkl; also: coupled to Ac2-Tz4-PEG2-Biotin)” was tested, and the “detection of Akt from cell lysate” value (Akt [5]) was “able to detect Akt from cell lysate”.
